Consider 1 molecule from patent publication US20230263748A1, “APPLICATION OF BENFLUMETOL AND DERIVATIVES THEREOF IN TREATMENT OF CORONAVIRUS INFECTION” (ACADEMY OF MILITARY MEDICAL SCIENCES, priority 2020, published 2023).

Read-outs that look alike come from different tables or passages of the source.

In one series the test system is SARS-CoV-2. The class given is cell-based. The conditions noted are these: for Viral genome copy number (MOI = 0.05): supernatant.
For another series, the system named is Vero E6 cells. Description: Detection of drug cytotoxicity by CCK-8 kit. The class given is cell-based. The conditions noted are these: for Cell viability (% of negative control): Vero E6, 48 h. The protocol:
The detection of drug cytotoxicity was performed by CCK-8 kit (Beoytime). Specific steps were as follows: • (1) 1×10^4 Vero E6 (ATCC) cells were inoculated in a 96-well plate and cultured at 37° C. for 8 hours. • (2) The drug was diluted with DMSO to obtain a stock solution with an appropriate concentration, and then diluted with MEM medium (purchased from Gibco, Cat. No. 10370021) containing 2% FBS (purchased from Gibco, Cat. No. 16000044) to the same concentration as that for the drug treatment. The original medium in the 96-well plate was discarded, 100 μL of drug-containing MEM medium was added to the cells, and three replicate wells were set for each concentration. Negative control (adding DMSO and medium to the cell wells, without adding drug) and blank control (no cells, adding DMSO and medium) were set. After the drug was added, the cells were cultured at 37° C. for 48 hours. • (3) 20 μL of CCK-8 solution (Beoytime) was added to the wells to be tested, mixed gently without generating air bubbles, and incubation was continued at 37° C. for 2 hours. OD450 was read on a microplate reader (purchased from Molecular Devices, model: SpectraMax M5), and cell viability was calculated:
Cell viability (%)=(A(drug treatment group)−A(blank control))/(A(negative control)−A(blank control))×100% • wherein A represents reading of microplate reader.
On the technique in general: Formazan colour is commonly taken as a measure of viable cells.

For the molecule `CCCCN(CCCC)CC(O)c1cc(Cl)cc2c1-c1ccc(Cl)cc1/C2=C/c1ccc(Cl)cc1` (centres unmarked) [benflumetol], the “Viral genome copy number (MOI = 0.05)” value in the series with SARS-CoV-2 (3.13 μM, Vero E6 cells, 48 h after infection) is 125717580; with SARS-CoV-2 (6.25 μM, Vero E6 cells, 48 h after infection) it was 87462582; in the series with SARS-CoV-2 (12.5 μM, Vero E6 cells, 48 h after infection) it was 87790130; with SARS-CoV-2 (25 μM, Vero E6 cells, 48 h after infection), 48801530; in the series with SARS-CoV-2 (50 μM, Vero E6 cells, 48 h after infection), 20512679; with SARS-CoV-2 (100 μM, Vero E6 cells, 48 h after infection) it was 2927366. The “Inhibition of viral RNA load on cells, dose dependence (in words)” value in the series on SARS-CoV-2 (Vero E6 cells, 48 h after infection, FIG. 1) is “the inhibitory activity was dose-dependent”. Moreover, the “Inhibition of replication of the SARS-CoV-2 virus genome in the infection supernatant (in words)” value in the series on SARS-CoV-2 (at 100 μM, 50 μM and 25 μM) is listed as “effectively inhibit the replication of the SARS-CoV-2 virus genome”. Further, the “Cell viability (% of negative control)” value with Vero E6 cells (0.78 μM) is 92.88%; with Vero E6 cells (1.56 μM) it was 94.55%; in the series with Vero E6 cells (3.13 μM) it was 96.69%; in the series with Vero E6 cells (6.25 μM), 106.70%; in the series with Vero E6 cells (12.5 μM), 108.69%; with Vero E6 cells (25 μM), 113.54%. Moreover, the “Cell viability (% of negative control)” value in the series with Vero E6 cells (50 μM) is listed as 115.52%; with Vero E6 cells (100 μM), 122.12%. Further, in the series with Vero E6 cells (all test concentrations), the “Toxic effect on the cells (in words)” value is given as “no toxic effect on the cells at all concentrations”.
